Data as given in ChEMBL document CHEMBL1127557, “Novel potassium-channel openers: preparation and pharmacological evaluation of racemic and optically active N-(6-amino-3-pyridyl)-N'-bicycloalkyl-N"-cyanoguanidine derivatives” (J Med Chem, 1994).

How the values were obtained:
Rattus norvegicus [1] = species: Rattus norvegicus; assay: Compound was tested for vasorelaxant activity on the basis of ability to relax endothelium-denuded rat aortic strips toned with 20 mM KCl; type: functional, Aorta
Rattus norvegicus [2] = assay: Compound was tested for hypotensive activity in anesthetized normotensive rats by intravenous injection. Systolic blood pressure measured 30 min after injection; type: functional
Rattus norvegicus [3] = species: Rattus norvegicus; assay: Compound was tested for oral diuretic effect on spontaneously hypertensive rats by measuring the urinary volume at vehicle concentration; type: functional, Urine
[4] = Ratio between Na+ and K+ excretion values at a dose of 5 mg/kg; type: ADME, organism-based; parameters: dose 5 mg/kg; details: in vivo
Rattus norvegicus [5] = assay: Compound was tested for oral diuretic effect on spontaneously hypertensive rats by measuring the urinary volume at 1 mg/kg concentration; type: functional, Urine
Rattus norvegicus [6] = assay: Compound was tested for oral diuretic effect on spontaneously hypertensive rats by measuring the urinary volume at 5 mg/kg concentration; type: functional, Urine
Rattus norvegicus [7] = species: Rattus norvegicus; assay: Compound was tested for oral diuretic effect on spontaneously hypertensive rats by measuring the excretion of sodium at vehicle concentration; type: ADME, organism-based, Urine; details: in vivo
[8] = Ratio between Na+ and K+ excretion values at a dose of 1 mg/kg; type: ADME, organism-based; parameters: dose 1 mg/kg; details: in vivo
Rattus norvegicus [9] = assay: Compound was tested for oral diuretic effect on spontaneously hypertensive rats by measuring the excretion of sodium at 5 mg/kg concentration.; type: ADME, organism-based, Urine; parameters: dose 5 mg/kg, route oral; details: in vivo
Rattus norvegicus [10] = species: Rattus norvegicus; assay: Compound was tested for oral diuretic effect on spontaneously hypertensive rats by measuring the potassium excretion at vehicle concentration; type: ADME, organism-based, Urine; details: in vivo
Rattus norvegicus [11] = assay: Compound was tested for oral diuretic effect on spontaneously hypertensive rats by measuring the potassium excretion at 5 mg/kg concentration; type: ADME, organism-based, Urine; parameters: dose 5 mg/kg, route oral; details: in vivo
Rattus norvegicus [12] = assay: Compound was tested for oral diuretic effect on spontaneously hypertensive rats by measuring the excretion of sodium at 1 mg/kg concentration; type: ADME, organism-based, Urine; parameters: dose 1 mg/kg, route oral; details: in vivo
Rattus norvegicus [13] = assay: Compound was tested for hypotensive activity in anesthetized normotensive rats by intravenous injection, Systolic blood pressure measured 30 min after injection; type: functional; details: 0.5 h
Rattus norvegicus [14] = assay: Compound was tested for oral diuretic effect on spontaneously hypertensive rats by measuring the potassium excretion at 1 mg/kg concentration; type: ADME, organism-based, Urine; parameters: dose 1 mg/kg, route oral; details: in vivo
Rattus norvegicus [15] = assay: Compound was tested for oral diuretic effect on spontaneously hypertensive rats by measuring the excretion of sodium at 5 mg/kg concentration; type: ADME, organism-based, Urine; parameters: dose 5 mg/kg, route oral; details: in vivo
[16] = Rattus norvegicus, Blood, iv, 0.5 h, read-out: ED30

IC50 (Rattus norvegicus [1]; Rattus norvegicus, Aorta) | IC50 (Rattus norvegicus [1]) | Ratio [4] | Na+ excretion (Rattus norvegicus [7]) | Ratio [8] | K+ excretion (Rattus norvegicus [10]) | K+ excretion (Rattus norvegicus [11]) | Na+ excretion (Rattus norvegicus [12]) | K+ excretion (Rattus norvegicus [14]) | SMILES | ED30 (Rattus norvegicus [2]; [16]) | Urinary volume (Rattus norvegicus [3]) | Urinary volume (Rattus norvegicus [5]) | Urinary volume (Rattus norvegicus [6]) | other results
593 nM | – | – | – | – | – | – | – | – | Cl.N#CN/C(=N\C1CC2CCC1C2)Nc1ccc(N)nc1 (stereo not given) | 0.74 mg/kg | – | – | – | –
– | 90 nM | – | – | – | – | – | – | – | N#CN/C(=N\[C@H]1C[C@H]2CC[C@@H]1C2)Nc1ccc(N)nc1 | 0.1 mg/kg | – | – | – | –
– | 71 nM | – | – | – | – | – | – | – | C[C@]12CC[C@H](C[C@@H]1/N=C(\NC#N)Nc1ccc(N)nc1)C2.Cl | – | – | – | – | ED30 (Rattus norvegicus [2]): 0.28 mg/kg
118 nM | – | – | – | – | – | – | – | – | C[C@]12CC[C@H](C[C@@H]1/N=C(\NC#N)Nc1ccc(N)nc1)C2 | 0.18 mg/kg | – | – | – | –
– | – | 0.5 | 1.357 m equiv 5hr-1 kg-1 | 1.08 | 1.078 m equiv 5hr-1 kg-1 | 1.249 m equiv 5hr-1 kg-1 | 1.523 m equiv 5hr-1 kg-1 | 1.35 m equiv 5hr-1 kg-1 | Cl.N#CN/C(=N\[C@@H]1CC2CCC1C2)Nc1ccc(N)nc1 (mixture of isomers) | – | 5.15 ml kg-1 5hr-1 | 8.77 ml kg-1 5hr-1 | 4.68 ml kg-1 5hr-1 | Na+ excretion (Rattus norvegicus [9]): 0.694 m equiv 5hr-1 kg-1; ED30 (Rattus norvegicus [13]): 0.51 mg/kg
– | 392 nM | 1.27 | 1.072 m equiv 5hr-1 kg-1 | 1.54 | 0.8 m equiv 5hr-1 kg-1 | 1.46 m equiv 5hr-1 kg-1 | 0.89 m equiv 5hr-1 kg-1 | 0.646 m equiv 5hr-1 kg-1 | Cl.N#CN/C(=N\[C@H]1C[C@H]2CC[C@@H]1C2)Nc1ccc(N)nc1 (racemic) | 0.17 mg/kg | 6.84 ml kg-1 5hr-1 | 5.53 ml kg-1 5hr-1 | 18.37 ml kg-1 5hr-1 | Na+ excretion (Rattus norvegicus [15]): 1.865 m equiv 5hr-1 kg-1
– | 79 nM | 0.59 | 1.072 m equiv 5hr-1 kg-1 | 1.08 | 0.8 m equiv 5hr-1 kg-1 | 0.515 m equiv 5hr-1 kg-1 | 0.8 m equiv 5hr-1 kg-1 | 0.747 m equiv 5hr-1 kg-1 | C[C@]12CC[C@H](C[C@@H]1/N=C(\NC#N)Nc1ccc(N)nc1)C2.Cl (racemic) | 0.2 mg/kg | 6.84 ml kg-1 5hr-1 | 6.92 ml kg-1 5hr-1 | 7.31 ml kg-1 5hr-1 | Na+ excretion (Rattus norvegicus [15]): 0.311 m equiv 5hr-1 kg-1
– | 267 nM | – | – | – | – | – | – | – | N#CN/C(=N\[C@@H]1C[C@H]2CC[C@@H]1C2)Nc1ccc(N)nc1 (stereo in doubt; (+)-9) | – | – | – | – | ED30 (Rattus norvegicus [2]): 0.4 mg/kg
278 nM | – | – | – | – | – | – | – | – | N#CN/C(=N\[C@@H]1C[C@H]2CC[C@@H]1C2)Nc1ccc(N)nc1 (stereo in doubt; (-)-9) | 0.57 mg/kg | – | – | – | –
110 nM | – | – | – | – | – | – | – | – | CC1(C)Oc2ccc(C#N)cc2[C@@H](N2CCCC2=O)[C@@H]1O [CROMAKALIM] | 0.11 mg/kg | – | – | – | –
380 nM | – | 0.12 | 1.357 m equiv 5hr-1 kg-1 | 0.78 | 1.078 m equiv 5hr-1 kg-1 | 0.584 m equiv 5hr-1 kg-1 | 1.27 m equiv 5hr-1 kg-1 | 1.546 m equiv 5hr-1 kg-1 | CC(N/C(=N\C#N)Nc1ccncc1)C(C)(C)C (stereo not given) [PINACIDIL ANHYDROUS] | 0.15 mg/kg | 5.15 ml kg-1 5hr-1 | 7.62 ml kg-1 5hr-1 | 2.56 ml kg-1 5hr-1 | Na+ excretion (Rattus norvegicus [15]): 0.078 m equiv 5hr-1 kg-1
